Data taken from patent US6593323B1, “Benzimidazole compounds and drugs containing the same” (Fuji Photo Film Co., Ltd., priority 1999, dated 2003).

System: mouse peritoneal macrophages
Assay: Suppression of foaming of macrophages: cholesterol ester (CE) production in mouse peritoneal macrophages loaded with liposomes
Format: cell-based
Settings: for CE yield (%): test compound 5 μM, 16 h with liposomes, cholesterol ester yield relative to control without test compound = 100% (smaller value = more potent suppression); for suppression of foaming of macrophages / cholesterol ester synthesis (result in words): mouse peritoneal macrophages, 5 μM
Experimental: Activity of the compounds of the present invention for suppressing the foaming of macrophages, which triggers arterial sclerosis, was examined. (1) In vitro experiment using mouse peritoneal macrophages.
15-Week old female ICR mice (Nippon SLC) were subjected to bleeding by cutting off their cervicalis, and Hanks buffer (Nippon Seiyaku) was injected into their peritoneal cavities. After abdominal regions of the mice were massaged, the buffer was recovered immediately, and then the resulting buffer was centrifuged at 1,000 r.p.m. for five minutes to collect peritoneal macrophages. Then, the collected macrophages were suspended in GTI medium (Wako Pure Chemical Industries), and inoculated onto a 24-well microtiter plate. After the macrophages were cultivated at 37° C. under 5% CO2 for two hours, the culture medium was changed with Dulbecco Modified Eagle Medium (MEM, Nippon Seiyaku). The macrophages were further cultivated at 37° C. under 5% CO2 for 16 hours, and then a test compound and liposomes were added to the culture.
1) Test compound: dissolved in DMSO (Wako Pure Chemical Industries),
2) Liposomes: PC/PS/DCP/CHOL=50/50/10/75 (nmol)
PC: Phosphatidylcholine (Funakoshi);
PS: Phosphatidylserine (Funakoshi);
DCP: Dicetylphosphate (Funakoshi);
CHOL: Cholesterol (Sigma)
After cultivation was further continued at 37° C. under 5% CO2 for 16 hours, lipid fraction was extracted with chloroform and methanol. The extracted lipid fraction was dissolved in isopropyl alcohol, and the produced cholesterol ester (CE) was quantified by an enzymatic luminescence method. Yield of the cholesterol ester was calculated as a relative ratio based on yield of the control as 100% where no test compound was added.

Compound	CE yield (%)	suppression of foaming of macrophages / cholesterol ester synthesis (result in words)
3-(5-(1-methylbenzimidazolyl-2-thio)pentyl)-5-methyl-2,4-oxazolidinedione [Compound 14]	20%	–
3-(6-(5-chlorobenzothiazolyl-2-thio)hexyl)-2,4-thiazolidinedione [Compound 16]	15%	–
O=C1CSC(=O)N1CCCCCSc1nc2ccccc2[nH]1 [Compound 2, 3-(5-(benzimidazolyl-2-thio)pentyl)-2,4-thiazolidinedione]	19%	–
O=C1CCC(=O)N1CCCCCSc1nc2ccccc2[nH]1 [Compound 11, N-(5-(benzimidazolyl-2-thio)pentyl)succinimide]	19%	–
CCC(=O)n1c(SCCCCCN2C(=O)OC(C)C2=O)nc2ccccc21 (stereo not shown) [Compound 15, 3-(5-(1-propionylbenzimidazolyl-2-thio)pentyl)-5-methyl-2,4-oxazolidinedione]	12%	–
O=C1CSC(=O)N1CCOCCSc1nc2ccccc2[nH]1 [Compound 22]	23%	–
O=C1CSC(=O)N1CCOCCOCCSc1nc2ccccc2[nH]1 [Compound 23, 3-(2-(2-(2-benzimidazolyl-2-thio)ethoxy)ethoxy)ethyl-2,4-thiazolidinedione]	22%	–
O=C1c2ccccc2C(=O)N1CCCCSCc1nc2ccccc2[nH]1 [Ref. 1, reference compound]	89%	completely inactive
CC(C)Oc1cccc(OC(C)C)c1NC(=O)CN1CCN(CCCSc2nc3ccccc3[nH]2)CC1 [Ref. 2, reference compound]	95%	almost no inhibitory effect
CCCCCCN(CCCCCSc1nc2ccccc2[nH]1)C(=O)Nc1ccc(F)cc1F [Ref. 3, reference compound]	78%	almost no inhibitory effect
